Holding throughout (format): cell-based
For experiment [1], the system named is BHK-21 cells. The experiment is described as follows: Anti-fibrosis activity test: inhibition of BHK-21 cell proliferation (CCK-8). The following applies: Mesocricetus auratus, BHK-21, 48 h, CCK-8, 48 hours after administration. The method in brief: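 Each concentration was tested in triplicate on adhered BHK-21 cells for 48 h, with pirfenidone as reference. A 2 h CCK-8 incubation preceded absorbance reading at 450 nm, and IC50 was obtained from percent inhibition versus blank.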

Experiment [2] concerns mouse macrophages (RAW264.7). The experiment is described as follows: Lipopolysaccharide-induced NO secretion in macrophages (Griess). The following applies: RAW264.7, LPS 1 μg/ml, a/b isomers given as first/second symbol, read-out: IC50 (μM), inhibition of lipopolysaccharide-induced NO secretion in macrophages. The gist of the method:
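Indomethacin and resveratrol served as positive controls while compounds were tested across concentrations on LPS-stimulated (1 μg/ml, 24 h) RAW264.7 cells. NO output was quantified colorimetrically (Griess, 548 nm).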

Experiment [3] has as its system NF-κB. Description: Immunological activity test: inhibition of NF-κB activity. The conditions noted are these: initial concentration of 30 μM; a/b isomers given as first/second symbol; read-out: IC50 (μM), inhibitory activity against NF-κB. The gist of the method:
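Initial screen at 30 μM; parthenolide positive control. IC50s derived from follow-up analysis.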

In experiment [4] the test system is human fibrosarcoma cells HT-1080. Description: Anti-fibrosis activity test: inhibition of proliferation of human fibrosarcoma cells HT-1080 (CCK-8). The conditions noted are these: Homo sapiens, HT-1080, 48 h, human fibrosarcoma cells HT-1080, CCK-8, 48 hours. The gist of the method: (§1)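 Using CCK-8 colorimetry (450 nm), the study assessed growth inhibition after 48 h compound exposure; plating density was 2×10^4 cells/mL with 24 h attachment beforehand. IC50 was calculated from (1−Ai/Ao)×100%.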

For experiment [5], the system named is human hepatic stellate cells LX-2. Description: Anti-fibrosis activity test: inhibition of proliferation of human hepatic stellate cells LX-2 (CCK-8). The following applies: Homo sapiens, 48 h, human hepatic stellate cells LX-2, CCK-8, 48 hours. The method in brief:
as §1

For experiment [6], the system named is human dermal fibroblasts CCC-ESF-1. The experiment is described as follows: Anti-fibrosis activity test: inhibition of proliferation of human dermal fibroblasts CCC-ESF-1 (CCK-8). The conditions noted are these: Fibroblast; human dermal fibroblasts CCC-ESF-1, CCK-8, 48 hours. The method in brief:
as §1

Experiment [7] deals with cardiac fibroblast RAT-iCell-C002. Description: Anti-fibrosis activity test: inhibition of proliferation of cardiac fibroblast RAT-iCell-C002 (CCK-8). The conditions noted are these: Cardiac fibroblast, 48 h, cardiac fibroblast RAT-iCell-C002, CCK-8, 48 hours. The gist of the method:
as §1

Experiment [8] relates to human embryonic lung fibroblast IMR-90. Description: Anti-fibrosis activity test: inhibition of proliferation of human embryonic lung fibroblast IMR-90 (CCK-8). The following applies: human embryonic lung fibroblast IMR-90, CCK-8, 48 hours. The method in brief:
as §1

Experiment [9] concerns human lung fibroblasts HFL1. The experiment is described as follows: Anti-fibrosis activity test: inhibition of proliferation of human lung fibroblasts HFL1 (CCK-8). The conditions noted are these: Homo sapiens, HFL1, 48 h, human lung fibroblasts HFL1, CCK-8, 48 hours. The method in brief:
as §1

Where two headings read alike, the source gives them in different places.

Regarding `C=CCn1c2c(c(=O)c3ccccc31)C(=O)n1cccc1-2` [Compound 6a, 4-Allyl-9H-pyrrolizino[1,2-b]quinoline-9,10(4H)-dione], the IC50 in experiment [1] was 0.05 to 5 mM; in [2] (Mus musculus, RAW264.7, 24 h) it was 1 to 10 µM; in [3], 1 to 10 µM; in experiment [4] it was below 0.05 mM; in experiment [5] it was 0.05 to 5 mM; in [6] it was 0.05 to 5 mM. Further, the IC50 in experiment [7], in experiment [8] and in [9] was 0.05 to 5 mM throughout.
For the compound `C=CCOc1c2c(nc3ccccc13)-c1cccn1C2=O` [Compound 6b, 9-(allyloxy)-10H-pyrrolizino[1,2-b]quinolin-10-one], the IC50 in experiment [1] lay in the range of 0.05 to 5 mM; in [2] (Mus musculus, RAW264.7, 24 h), 1 to 10 µM; in [3], 1 to 10 µM; in [4], 0.05 to 5 mM; in [5], 0.05 to 5 mM; in [6] it was 5 to 20 mM. Further, the IC50 in experiment [7], in experiment [8] and in experiment [9] was 0.05 to 5 mM each time.
On to `C#CCn1c2c(c(=O)c3ccccc31)C(=O)n1cccc1-2` [Compound 7a, 4-(Prop-2-yn-1-yl)-9H-pyrrolizino[1,2-b]quinoline-9,10(4H)-dione], for which the IC50 in experiment [1] is below 0.05 mM; in experiment [2] (Mus musculus, RAW264.7, 24 h), 0.1 to 1 µM; in [3], 1 to 10 µM; in experiment [4], 0.05 to 5 mM; in [5], 0.05 to 5 mM; in experiment [6], below 0.05 mM. Besides, the IC50 in experiment [7], in experiment [8] and in experiment [9] was 0.05 to 5 mM in each case.
As for `C#CCOc1c2c(nc3ccccc13)-c1cccn1C2=O` [Compound 7b, 9-(prop-2-yn-1-yloxy)-10H-pyrrolizino[1,2-b]quinolin-10-one], the IC50 in experiment [1] was 0.05 to 5 mM; in experiment [2] (Mus musculus, RAW264.7, 24 h), 0.1 to 1 µM; in experiment [3], 1 to 10 µM; in [4], 0.05 to 5 mM; in [5], 0.05 to 5 mM; in [6] it was below 0.05 mM. The IC50 in experiment [7], in [8] and in experiment [9] was 0.05 to 5 mM throughout.
For `O=C1c2c(n(CCO)c3ccccc3c2=O)-c2cccn21` [Compound 11a, 4-(2-Hydroxyethyl)-9H-pyrrolizino[1,2-b]quinoline-9,10(4H)-dione], the IC50 in experiment [1] was 0.05 to 5 mM; in experiment [2] (Mus musculus, RAW264.7, 24 h), 1 to 10 µM; in [3], 1 to 10 µM; in [4], 0.05 to 5 mM; in experiment [5], 0.05 to 5 mM; in [6], 0.05 to 5 mM. Besides, the half-maximal inhibitory concentration (IC50) in experiment [7], in [8] and in [9] was 0.05 to 5 mM in each case.
Take `O=C1c2c(nc3ccccc3c2OCCO)-c2cccn21` [Compound 11b, 9-(2-hydroxyethoxy)-10H-pyrrolizino[1,2-b]quinolin-10-one]: the half-maximal inhibitory concentration (IC50) fell in the range of 0.05 to 5 mM in experiment [1]; 1 to 10 µM in [2] (Mus musculus, RAW264.7, 24 h); 1 to 10 µM in [3]; 0.05 to 5 mM in experiment [4]; 0.05 to 5 mM in [5]; 0.05 to 5 mM in experiment [6]. Moreover, the half-inhibitory concentration (IC50) in experiment [7], in [8] and in [9] was 0.05 to 5 mM throughout.
Turning to `CN(C)CCn1c2c(c(=O)c3ccccc31)C(=O)n1cccc1-2` [Compound 12a, 4-(2-(Dimethylamino)ethyl)-9H-pyrrolizino[1,2-b]quinoline-9,10(4H)-dione], the IC50 was 0.05 to 5 mM in [1]; 1 to 10 µM in experiment [2] (Mus musculus, RAW264.7, 24 h); 1 to 10 µM in experiment [3]; 0.05 to 5 mM in [4]; 0.05 to 5 mM in experiment [5]; 0.05 to 5 mM in experiment [6]. Moreover, the IC50 in [7], in experiment [8] and in [9] was 0.05 to 5 mM each time.
Consider `CN(C)CCOc1c2c(nc3ccccc13)-c1cccn1C2=O` [Compound 12b, 9-(2-(dimethylamino)ethoxy)-10H-pyrrolizino[1,2-b]quinolin-10-one], for which the IC50 in [1] fell in the range of 0.05 to 5 mM; in [2] (Mus musculus, RAW264.7, 24 h), 1 to 10 µM; in experiment [3], 1 to 10 µM; in experiment [4] it was 0.05 to 5 mM; in experiment [5] it was 0.05 to 5 mM; in [6], 0.05 to 5 mM. In addition, the IC50 in experiment [7], in [8] and in [9] was 0.05 to 5 mM in each case.
In the case of `O=C1c2c(n(CCCO)c3ccccc3c2=O)-c2cccn21` [Compound 16a, 4-(3-Hydroxypropyl)-9H-pyrrolizino[1,2-b]quinoline-9,10(4H)-dione], the IC50 was 0.05 to 5 mM in [1]; 1 to 10 µM in experiment [2] (Mus musculus, RAW264.7, 24 h); 1 to 10 µM in experiment [3]; 0.05 to 5 mM in [4]; 0.05 to 5 mM in experiment [5]; 0.05 to 5 mM in experiment [6]. In addition, the IC50 in experiment [7], in experiment [8] and in experiment [9] was 0.05 to 5 mM throughout.
As for `O=C1c2c(nc3ccccc3c2OCCCO)-c2cccn21` [Compound 16b, 9-(3-hydroxypropoxy)-10H-pyrrolizino[1,2-b]quinolin-10-one], the IC50 was 0.05 to 5 mM in [1]; 1 to 10 µM in experiment [2] (Mus musculus, RAW264.7, 24 h); 1 to 10 µM in experiment [3]; 0.05 to 5 mM in [4]; 0.05 to 5 mM in [5]; 0.05 to 5 mM in [6]. Moreover, the concentration for half-maximal inhibition (IC50) in experiment [7], in [8] and in [9] was 0.05 to 5 mM throughout.
For the compound `O=C(Cn1c2c(c(=O)c3ccccc31)C(=O)n1cccc1-2)c1ccc(-c2ccccc2)cc1` [Compound 50a, 4-(2-([1,1′-Biphenyl]-4-yl)-2-oxoethyl)-9H-pyrrolizino[1,2-b]quinoline-9,10(4H)-dione], the IC50 in [1] was 0.05 to 5 mM; in experiment [2] (Mus musculus, RAW264.7, 24 h), 1 to 10 µM; in [3] it was 1 to 10 µM; in experiment [4], 0.05 to 5 mM; in [5], 5 to 20 mM; in [6] it was 0.05 to 5 mM. Further, the results for the IC50 in experiment [7], in experiment [8] and in experiment [9] were 5 to 20 mM, 5 to 20 mM and 0.05 to 5 mM, respectively.
`O=C(COc1c2c(nc3ccccc13)-c1cccn1C2=O)c1ccc(-c2ccccc2)cc1` [Compound 50b, 9-(2-([1,1′-biphenyl]-4-yl)-2-oxoethoxy)-10H-pyrrolizino[1,2-b]quinolin-10-one]: the IC50 in [1] was 0.05 to 5 mM; in experiment [2] (Mus musculus, RAW264.7, 24 h), 1 to 10 µM; in [3] it was 1 to 10 µM; in experiment [4], 0.05 to 5 mM; in [5] it was 5 to 20 mM; in experiment [6] it was below 0.05 mM. Also, the values for the IC50 in [7], in [8] and in experiment [9] were 5 to 20 mM, 5 to 20 mM and 0.05 to 5 mM, respectively.
For the compound `O=C(O)c1ccccc1-c1ccc(Cn2c3c(c(=O)c4ccccc42)C(=O)n2cccc2-3)cc1` [Compound 81a, 4′-((9,10-Dioxo-9H-pyrrolizino[1,2-b]quinolin-4(10H)-yl)methyl)-[1,1′-biphenyl]-2-carboxylic acid], the IC50 in experiment [1] was below 0.05 mM; in experiment [2] (Mus musculus, RAW264.7, 24 h) it was 1 to 10 µM; in [3], 1 to 10 µM; in experiment [4], 0.05 to 5 mM; in experiment [5], below 0.05 mM; in experiment [6], 0.05 to 5 mM. Further, the concentration for half-maximal inhibition (IC50) in [7] is 0.05 to 5 mM; in experiment [8] it was below 0.05 mM; in experiment [9], 0.05 to 5 mM.
`O=C(O)c1ccccc1-c1ccc(COc2c3c(nc4ccccc24)-c2cccn2C3=O)cc1` [Compound 81b, 4′-(((10-oxo-10H-pyrrolizino[1,2-b]quinolin-9-yl)oxy)methyl)-[1,1′-biphenyl]-2-carboxylic acid]: the IC50 is 0.05 to 5 mM in experiment [1]; 1 to 10 µM in [2] (Mus musculus, RAW264.7, 24 h); 1 to 10 µM in [3]; 0.05 to 5 mM in experiment [4]; below 0.05 mM in experiment [5]; 0.05 to 5 mM in experiment [6]. Besides, the IC50 in experiment [7], in experiment [8] and in experiment [9] was 0.05 to 5 mM throughout.
For the compound `N#Cc1c(N2CCNCC2)ccc2c(=O)c3c(n(Cc4ccc(F)cc4)c12)-c1cccn1C3=O` [Compound 486a, 4-(4-Fluorobenzyl)-9,10-dioxo-6-(piperazin-1-yl)-4,10-dihydro-9H-pyrrolizino[1,2-b]quinoline-5-carbonitrile], the half-maximal inhibitory concentration (IC50) in experiment [2] (24 hours) lay within 0.1 to 1 µM; in [3] it was 10 to 50 µM.
As for `N#Cc1c(N2CCNCC2)ccc2c(OCc3ccc(F)cc3)c3c(nc12)-c1cccn1C3=O` [Compound 486b, 9-((4-fluorobenzyl)oxy)-10-oxo-6-(piperazin-1-yl)-10H-pyrrolizino[1,2-b]quinoline-5-carbonitrile], the 50% inhibitory concentration (IC50) in experiment [2] (24 hours) and in experiment [3] was 1 to 10 µM each time.
As to `O=C1c2c(nc3ccccc3c2OCc2ccc(-c3ccccc3)cc2)-c2cccn21` [Compound 674b], the IC50 in experiment [2] (24 hours) and in [3] was 1 to 10 µM throughout.
